Literature values in patent US20100172981A1, “Ibuprofen-Effervescent Preparation Having a High Dissolution Rate and Method for the Production thereof” (Losan Pharma GMBH, priority 2006, published 2010).

Conditions: general statement in the background section

CC(C)Cc1ccc(C(C)C(=O)O)cc1.[Na] (stereo not shown) [ibuprofen-sodium]
solubility / dissolution in water (words, background): dissolves only slowly in water
